In ChEMBL document CHEMBL5512627, “Small-molecule agents for treating skin diseases” (Eur J Med Chem, 2024):
Each block holds one compound with its values, some of them ahead of it.

Columns and labels:
[1] = molecular target: T1, 3-oxo-5-alpha-steroid 4-dehydrogenase 1 (Homo sapiens, UniProt P18405); assay: Inhibition of human steroid 5-alpha-reductase 1
T1 sequence (P18405 whole entry): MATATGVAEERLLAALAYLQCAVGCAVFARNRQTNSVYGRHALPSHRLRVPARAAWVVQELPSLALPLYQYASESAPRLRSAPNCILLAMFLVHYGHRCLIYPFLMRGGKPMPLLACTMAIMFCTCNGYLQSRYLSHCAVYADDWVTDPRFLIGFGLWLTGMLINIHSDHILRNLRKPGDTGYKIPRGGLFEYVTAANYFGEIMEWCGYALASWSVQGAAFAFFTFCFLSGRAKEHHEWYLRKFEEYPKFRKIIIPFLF

[2] = Inhibition of lipid synthesis in androgen stimulated Hamster flank gland; type: functional, Mesocricetus auratus
[3] = Upregulation of NE suppressed c-Kit expression in human epidermal melanocyte; type: functional, cell-based
Mus musculus [4] = species: Mus musculus; assay: Anti-inflammatory activity in imiquimod-induced C57BL/6 mouse psoriasis model assessed as reduction in epidermal thickness at 200 uL relative to control; type: functional; set-up: scale not given: the % may be the effect or the level left
Mus musculus [5] = species: Mus musculus; assay: Anti-inflammatory activity in imiquimod-induced BALB/c mouse psoriasis model assessed as reduction in skin inflammation; type: functional, organism-based

IC50 [1]: 0.0142 µM
SMILES: CC1=C2CCc3cc(/C=C/c4ccccc4)ccc3N2CCC1=O

SMILES: C[C@]12C=CC(=O)C=C1CC[C@@H]1[C@@H]2C(=O)C[C@@]2(C)[C@H]1CC[C@]2(Cl)S(=O)(=O)Cc1ccccc1
inhibition (INH) [2]: 70%

SMILES: COC(=O)C1=CO[C@@H](O[C@@H]2O[C@H](CO)[C@@H](O)[C@H](O)[C@H]2O)[C@@H]2C(CO)=CC[C@H]12 [GENIPOSIDE]
EC50 [3]: 1.65 µM

SMILES: CCc1ccc(N(CC(C)C)S(=O)(=O)c2ccc(OCC3CCOCC3)c(CO)c2)cc1 [GSK2981278]
Activity (Mus musculus [4]): 23%

EC50 (Mus musculus [5]): 0.004 µM
SMILES: CN1C(=O)[C@@H](NC(=O)c2n[nH]c(Cc3ccccc3)n2)COc2ccccc21 [GSK2982772]
